Patent publication US20240299359A1, “PHARMACEUTICAL COMPOSITION FOR ANIMALS CONTAINING 5-HYDROXY-METHYLIMIDAZOLIDINE-2,4-DIONE COMPOUND AS ACTIVE INGREDIENT” (KYONGBO PHARM. CO., LTD., priority 2021, published 2024)
Where “and” joins values, the source holds several entries; their conditions need not be identical. Equal values may be shown once.

System: beagles
Test: 13-week repeated oral toxicity: blood coagulation test (PT, aPTT, fibrinogen)
Format: in vivo, beagle
Protocol: Blood Coagulation Test (PT, aPTT, Fibrinogen)
2 ml of collected blood was placed in a 3.2% sodium citrate tube, and centrifuged at 4,000 rpm for 10 minutes at 4° C., and plasma was collected for blood coagulation analysis. Prothrombin time (PT), activated partial thromboplastin time (aPTT), and fibrinogen (FIB) were analyzed using a blood coagulation measuring device (Werfen ACL ELITE Pro).

[1] = G2 200 mg/kg, repeated administration for 13 week, female, group mean
[2] = G2 200 mg/kg, repeated administration for 13 week, female, individual animals
[3] = G2 200 mg/kg, repeated administration for 13 week, male, group mean
[4] = G2 200 mg/kg, repeated administration for 13 week, male, individual animals
[5] = G3 500 mg/kg, repeated administration for 13 week, female, group mean
[6] = G3 500 mg/kg, repeated administration for 13 week, female, individual animals
[7] = G3 500 mg/kg, repeated administration for 13 week, male, group mean
[8] = G3 500 mg/kg, repeated administration for 13 week, male, individual animals
[9] = G4 1,000 mg/kg, repeated administration for 13 week, female, group mean
[10] = G4 1,000 mg/kg, repeated administration for 13 week, female, individual animals
[11] = G4 1,000 mg/kg, repeated administration for 13 week, male, group mean
[12] = G4 1,000 mg/kg, repeated administration for 13 week, male, individual animals
[13] = before administration (day 0), 200 mg/kg group (G2), female, individual animals, 200 mg/kg
[14] = before administration (day 0), 200 mg/kg group (G2), female
[15] = before administration (day 0), 200 mg/kg group (G2), male, individual animals, 200 mg/kg
[16] = before administration (day 0), 200 mg/kg group (G2), male
[17] = before administration (day 0), 500 mg/kg group (G3), female, individual animals, 500 mg/kg
[18] = before administration (day 0), 500 mg/kg group (G3), female
[19] = before administration (day 0), 500 mg/kg group (G3), male, individual animals, 500 mg/kg
[20] = before administration (day 0), 500 mg/kg group (G3), male
[21] = before administration (day 0), 1,000 mg/kg group (G4), female, individual animals
[22] = before administration (day 0), 1,000 mg/kg group (G4), female
[23] = before administration (day 0), 1,000 mg/kg group (G4), male, individual animals
[24] = before administration (day 0), 1,000 mg/kg group (G4), male

CN1C(=O)NC(=O)C1O (stereo not drawn) [KBP-001, 5-hydroxy-1-methylimidazolidine-2,4-dione] showed an FIB [1] of 195.00 mg/dL, a PT [1] of 7.67 s and an aPTT [1] of 14.03 s. For the same compound, the FIB [2] was 170 mg/dL and 164 mg/dL and 251 mg/dL, the PT [2] was 7.6 sec (2×) and 7.8 sec and the aPTT [2] was 13.8 s and 13.3 s and 15.0 s. The FIB [3] was 293.00 mg/dL, the PT [3] was 7.87 s and the aPTT [3] was 13.13 s. For the same compound, the FIB [4] was 299 mg/dL and 268 mg/dL and 312 mg/dL, the PT [4] was 8.5 s and 8.2 s and 6.9 s and the aPTT [4] was 12.7 s and 13.0 s and 13.7 s. It also gave an FIB [5] of 250.00 mg/dL, a PT [5] of 7.53 s and an aPTT [5] of 14.37 s. The FIB [6] was 212 mg/dL and 230 mg/dL and 308 mg/dL, the PT [6] was 8.6 s and 6.7 s and 7.3 s and the aPTT [6] was 15.2 s and 13.7 s and 14.2 s. For the same compound, the FIB [7] was 312.67 mg/dL, the PT [7] was 7.20 s and the aPTT [7] was 15.17 s. For the same compound, the FIB [8] was 347 mg/dL and 302 mg/dL and 289 mg/dL, the PT [8] was 7.4 s and 7.2 s and 7.0 s and the aPTT [8] was 15.3 s and 14.8 s and 15.4 s. For the same compound, the FIB [9] was 307.00 mg/dL, the PT [9] was 7.57 s and the aPTT [9] was 14.03 s. The FIB [10] was 442 mg/dL and 273 mg/dL and 206 mg/dL, the PT [10] was 7.1 sec (2×) and 8.5 sec and the aPTT [10] was 12.9 s and 13.0 s and 16.2 s. For the same compound, the FIB [11] was 318.67 mg/dL, the PT [11] was 7.53 s and the aPTT [11] was 13.93 s. For the same compound, the FIB [12] was 292 mg/dL and 386 mg/dL and 278 mg/dL, the PT [12] was 7.6 s and 7.3 s and 7.7 s and the aPTT [12] was 15.2 s and 12.8 s and 13.8 s. The FIB [13] was 114 mg/dL and 184 mg/dL and 218 mg/dL, the PT [13] was 8.5 s and 7.6 s and 7.3 s and the aPTT [13] was 14.9 s and 15.3 s and 14.0 s. For the same compound, the “FIB, Mean” value [14] was 172.00 mg/dL, the “PT, Mean” value [14] was 7.80 s and the “aPTT, Mean” value [14] was 14.73 s. For the same compound, the FIB [15] was 270 mg/dL and 254 mg/dL and 233 mg/dL, the PT [15] was 9.2 s and 8.4 s and 7.2 s and the aPTT [15] was 15.5 s and 12.1 s and 12.4 s. The “FIB, Mean” value [16] was 252.33 mg/dL, the “PT, Mean” value [16] was 8.27 s and the “aPTT, Mean” value [16] was 13.33 s. For the same compound, the FIB [17] was 186 mg/dL and 199 mg/dL and 268 mg/dL, the PT [17] was 8.8 s and 7.4 s and 7.9 s and the aPTT [17] was 14.5 s and 11.9 s and 13.8 s. For the same compound, the “FIB, Mean” value [18] was 217.67 mg/dL, the “PT, Mean” value [18] was 8.03 s and the “aPTT, Mean” value [18] was 13.40 s. The FIB [19] was 235 mg/dL and 254 mg/dL and 239 mg/dL, the PT [19] was 7.6 s and 7.2 s and 7.3 s and the aPTT [19] was 15.2 s and 14.6 s and 12.1 s. The “FIB, Mean” value [20] was 242.67 mg/dL, the “PT, Mean” value [20] was 7.37 s and the “aPTT, Mean” value [20] was 13.97 s. For the same compound, the FIB [21] was 237 mg/dL and 230 mg/dL and 258 mg/dL, the PT [21] was 7.6 s and 7.8 s and 8.3 s and the aPTT [21] was 11.1 s and 14.2 s and 15.6 s. For the same compound, the “FIB, Mean” value [22] was 194.73 mg/dL, the “PT, Mean” value [22] was 6.53 s and the “aPTT, Mean” value [22] was 11.62 s. For the same compound, the FIB [23] was 305 mg/dL and 312 mg/dL and 237 mg/dL, the PT [23] was 8.3 s and 7.2 s and 8.0 s and the aPTT [23] was 14.8 s and 11.3 s and 14.7 s. The “FIB, Mean” value [24] was 200.81 mg/dL, the “PT, Mean” value [24] was 6.57 s and the “aPTT, Mean” value [24] was 11.52 s.
